Measurements as given in patent publication US8338482B2, “Modulating notch1 signaling pathway for treating neuroendocrine tumors” (Wisconsin Alumni Research Foundation, priority 2007, dated 2012).

How the values were obtained:
Hedgehog signaling = settings: 50 mg/kg/d i.p.
Source text: Sixty nude mice undergo intrasplenic injection of NE tumor cells as described above. […] Treatment continues for 8 weeks.
2) Interval assessment of tumor burden. All animals undergo microCT scanning every week for 8 weeks as described above. Blood is sampled weekly for measurement of serotonin or calcitonin levels.
3) Measurement of Hedgehog signaling inhibition. […] The liver lesions from animals sacrificed at 2 weeks intervals (n=3 per group) are microdissected from normal liver and total RNA extracted. Tumors in cycloamine treated mice are analyzed for downregulation of Gli1 expression by real-time PCR when compared to control animals.

Hedgehog pathway = settings: murine models; cited from earlier work
[1] = system: H727 human lung carcinoid cancer cells; assay: Western blot analysis of pulmonary carcinoid cells; assay type: cell-based; settings: SBHA, 48 hours
[2] = system: H727 human lung carcinoid cancer cells; assay: MTT cell proliferation assay, pulmonary carcinoid cells; assay type: cell-based; settings: up to 6 days
Source text: (§1) Cell Culture BON human GI carcinoid cancer cells, kindly provided by Drs. B. Mark Evers and Courtney M. Townsend, Jr. (University of Texas Medical Branch, Galveston, Tex., USA), and H727 human lung carcinoid cancer cells (American Type Tissue Collection, Manassas, Va., USA) were maintained as previously described (Sippel, R S et al., Raf-1 Activation Suppresses neuroendocrine marker and hormone levels in human gastrointestinal carcinoid cells. Am J Physiol Gastrointest Liver Physiol. 2003 August; 285(2):G245-54, Van Gompel J J et al., ZM336372, A Raf-1 Activator, Suppresses Growth and Neuroendocrine Hormone Levels in Carcinoid Tumor Cells. Mol Cancer Ther. 2005 June; 4(6):910-7)
Cell Proliferation Assay Carcinoid cancer cell proliferation was measured by the MTT (thiazolyl blue tetrazolium bromide; Sigma-Aldrich, St. Louis, Mo., USA) rapid calorimetric assay as previously described (Van Gompel J J et al., ZM336372, A Raf-1 Activator, Suppresses Growth and Neuroendocrine Hormone Levels in Carcinoid Tumor Cells. Mol Cancer Ther. 2005 June; 4(6):910-7). Briefly, cells were seeded in quadruplicate on 24-well plates and incubated for 24 hours to allow cell attachment. The cells were then treated with SBHA (Sigma-Aldrich) in concentrations of 0 to 50 μM and incubated for up to 6 days. The MTT assay was performed by replacing the standard medium with 250 μL of serum-free medium containing MTT (0.5 mg/mL) and incubated at 37° C. for 3 hours. […] The plates were then measured at 540 nm using a spectrophotometer (μQuant; Bio-Tek Instruments, Winooski, Vt., USA). […]
(§2) Cell Proliferation Assay Carcinoid tumor cell proliferation was measured by the MTT (methylthiazolyldiphenyl-tetrazolium bromide; Sigma-Aldrich, St. Louis, Mo.) rapid colorimetric assay as previously described (Van Gompel J J et al., ZM336372, A Raf-1 Activator, Suppresses Growth and Neuroendocrine Hormone Levels in Carcinoid Tumor Cells. Mol Cancer Ther 2005; 4:910-917). […] The plates were then measured at 540 nm using a spectrophotometer (μQuant; Bio-Tek Instruments, Winooski, Vt.).

[3] = system: BON human GI carcinoid cancer cells; assay: Western blot analysis of GI carcinoid cells; assay type: cell-based; settings: 48 hours
Experimental: Cell Culture BON human GI carcinoid cancer cells, kindly provided by Drs. B. Mark Evers and Courtney M. Townsend, Jr.
Total protein concentrations were quantified with a bicinchoninic acid assay kit (Pierce Biotechnology, Rockford, Ill., USA). Denatured cellular extracts were resolved by SDS-PAGE, transferred to nitrocellulose membranes (Schleicher and Schuell, Keene, N.H., USA), blocked in milk, and incubated with appropriate antibodies. The antibody dilutions were: 1:1,000 for Notch1 (Santa Cruz Biotechnology, Santa Cruz, Calif., USA), mammalian achaete-scute homolog 1 (ASCL1; BD Biosciences, San Diego, Calif., USA), chromogranin A (Zymed Laboratories, San Francisco, Calif., USA), and cyclin D1 (Cell Signaling Technology, Danvers, Mass., USA), 1:2,000 for p21 (Cell Signaling Technology) and p27 (Santa Cruz Biotechnology), and 1:10,000 for glyceraldehyde-3-phosphate dehydrogenase (G3PDH; Trevigen, Gaithersburg, Md., USA). Horseradish peroxidase conjugated goat anti-rabbit or goat anti-mouse secondary antibodies (Pierce Biotechnology) were used depending on the source of the primary antibody. For visualization of the protein signal, Immunstar (Bio-Rad Laboratories, Hercules, Calif., USA) or SuperSignal West Femto (Pierce Biotechnology) kits were used per the manufacturer's instructions.
Cell Culture BON human gastrointestinal (GI) carcinoid tumor cells, kindly provided by Drs. B. Mark Evers and Courtney M. Townsend, Jr.
Total protein concentrations were quantified with a bicinchoninic acid assay kit (Pierce Biotechnology, Rockford, Ill.). Denatured cellular extracts were resolved by SDS-PAGE, transferred onto nitrocellulose membranes (Schleicher and Schuell, Keene, N H), blocked in milk, and incubated with appropriate antibodies. The antibody dilutions were: 1:1,000 for Notch1 (Santa Cruz Biotechnology, Santa Cruz, Calif.), mammalian achaete-scute homolog 1 (ASCL1; BD Biosciences, San Diego, Calif.), chromogranin A (Zymed Laboratories, San Francisco, Calif.), and cyclin D1 (Cell Signaling Technology, Danvers, Mass.), 1:2,000 for p21 (Cell Signaling Technology) and p27 (Santa Cruz Biotechnology), and 1:10,000 for glyceraldehyde-3-phosphate dehydrogenase (G3PDH; Trevigen, Gaithersburg, Md.). Horseradish peroxidase conjugated goat anti-rabbit or goat anti-mouse secondary antibodies (Pierce Biotechnology) were used depending on the source of the primary antibody. For visualization of the protein signal, Immunstar (Bio-Rad Laboratories, Hercules, Calif.) or SuperSignal West Femto (Pierce Biotechnology) kits were used per the manufacturer's instructions.

Human MTC TT cells [4] = assay: Western blotting of medullary thyroid cancer cells; assay type: cell-based; settings: concentrations up to 25 μM
Experimental: (§3) Human MTC TT cells were treated with SBHA in concentrations up to 25 μM and analyzed by Western blotting for evidence of Notch1 pathway activation and changes in neuroendocrine markers. MTT assay was used to measure cell viability. Finally mechanism of growth inhibition was analyzed by Western blotting.

[5] = system: BON human GI carcinoid cancer cells; assay: MTT cell proliferation assay, GI carcinoid cells; assay type: cell-based
Source text: as §1
Cell Proliferation Assay Carcinoid cancer cell proliferation was measured by the MTT (thiazolyl blue tetrazolium bromide; Sigma-Aldrich, St. Louis, Mo., USA) rapid calorimetric assay as previously described (Van Gompel J J et al., ZM336372, A Raf-1 Activator, Suppresses Growth and Neuroendocrine Hormone Levels in Carcinoid Tumor Cells. Mol Cancer Ther. 2005 June; 4(6):910-7). Briefly, cells were seeded in quadruplicate on 24-well plates and incubated for 24 hours to allow cell attachment. The cells were then treated with SBHA (Sigma-Aldrich) in concentrations of 0 to 50 μM and incubated for up to 6 days. The MTT assay was performed by replacing the standard medium with 250 μL of serum-free medium containing MTT (0.5 mg/mL) and incubated at 37° C. for 3 hours. After incubation, 750 μL of dimethyl sulfoxide (Sigma-Aldrich) was added to each well and mixed thoroughly. The plates were then measured at 540 nm using a spectrophotometer (μQuant; Bio-Tek Instruments, Winooski, Vt., USA).
Cell Culture BON human gastrointestinal (GI) carcinoid tumor cells, kindly provided by Drs. B. Mark Evers and Courtney M. Townsend, Jr. […]
as §2

Human MTC TT cells [6] = assay: MTT cell viability assay, medullary thyroid cancer cells; assay type: cell-based; settings: concentrations up to 25 μM
Experimental: as §3

Structure (SMILES)	Hedgehog signaling within the NE tumor cells (Hedgehog signaling)	Hedgehog signaling (Hedgehog pathway)	tumors dependent on Hedgehog signaling (Hedgehog pathway)	levels of cyclin D1 [1]	levels of cyclin-dependent kinase inhibitors p21 and p27 [1]	cell growth ([2]; SBHA 0 to 50 μM)	concentrations that produced growth inhibition [2]	concentration resulting in induction of full-length Notch1 and Notch1 intracellular domain (NICD) ([3]; concentrations as low as)	levels of cyclin D1 ([3]; SBHA)	levels of cyclin-dependent kinase inhibitors p21 and p27 ([3]; SBHA)	ASCL1 (Human MTC TT cells [4])	active form of Notch1 (Human MTC TT cells [4])	chromogranin A (Human MTC TT cells [4])	cleaved poly ADP-ribose polymerase (PARP) and caspase-3 (Human MTC TT cells [4])	cell proliferation ([5]; SBHA 0 to 50 μM, up to 6 days)	concentration giving significant growth inhibition ([5]; after 4 days of exposure)	cell viability (Human MTC TT cells [6])
CC1=C2C[C@H]3[C@@H](CC=C4C[C@@H](O)CC[C@@]43C)[C@@H]2CC[C@]12O[C@@H]1C[C@H](C)CN[C@H]1[C@H]2C [Cyclopamine]	confirmed to inhibit	completely blocked	caused regression														
O=C(CCCCCCC(=O)NO)NO [SBHA, suberic bishydroxamic acid]				decreased levels	increased levels	dose-dependent growth suppression	20 to 50 µM	5 µM	decreased levels	increased levels	concomitant decrease	dose-dependent induction	decrease	increase in protein levels	profound dose-dependent inhibition	5 µM	dose-dependant decrease
